# Experimental data from the OPERA property sets (Mansouri et al. 2018).
# Settings: not given
SMILES,logP,solubility [mM]
N#CCCN(N)c1nc2cc(Cl)ccc2o1,1.72,–
CCCCCCCCOC(=O)c1ccccc1C(=O)OCCCCCCCC,8.1,–
O=[N+]([O-])c1ccc(Cl)cc1Cl,3.07,–
CC(C)COC(=O)n1c(-c2cscn2)nc2ccccc21,3.46,–
CCCCCCCCCCCCOC(=O)c1ccc(N)cc1,–,1.58e-05
CNCCC=C1c2ccccc2CCc2ccccc21,4.51,–
c1ccc2cc3cc4c(ccc5ccccc54)cc3cc2c1,6.81,–
Cc1ccc(S(=O)(=O)NC(CCC(=O)NC2CCCCC2)C(=O)O)cc1 (stereo not given),0.1,–
CC(=O)n1ncc2c(O)ncnc21,-0.35,–
CCn1c2ccccc2c2ccccc21,4.49,–
O=C(O)Cc1ccccc1I,2.33,–
Brc1ccc(-c2ccccc2)cc1,4.96,–
CCNC(=O)CNC(=O)c1ccccc1,0.58,–
COC(=O)n1c(-c2cscn2)nc2ccccc21,2.05,–
CCCCC(OC(Cc1ccccc1)C(=O)N1CCC(OCOC)CC1)C(=O)NC(CC1CCCCC1)C(O)CC(C(=O)NCCCNC(C)=O)C(C)C (stereo not given),4.3,–
CCCN1CCCC1CNC(=O)c1cc(S(N)(=O)=O)ccc1OC (stereo not given),2.16,–
CCCC(O)CC (stereo not given),1.65,–
CN1CCCC1=O,-0.38,–
COC(=O)[C@@H](N)Cc1ccc(O)cc1,0.29,–
N#Cc1cc(-c2ccncc2)cnc1Cl,1.74,–
ClC1=C(Cl)C2(Cl)C(Cl)(Cl)C3CC(Cl)C1C3C2(Cl)Cl (stereo not given),6.09,–
CCn1ccc(=O)c(O)c1,-0.4,–
Cc1ccc2c(ccc3ccccc32)c1,4.86,–
CCOC(=O)CNC(=O)c1cn(CC)c2nc(C)ccc2c1=O,2.07,–
O=C(O)CNC(=O)c1cccc(I)c1,1.88,–
CCCC(=O)Oc1c(Br)cc(C#N)cc1Br,3.94,–
Cc1ccc(-c2ccccc2)cc1,4.63,–

SMILES,logP,solubility [mM]
Cc1cccc2c1ccc1ccccc12,5.08,–
O=Cc1ccc(F)cc1,1.54,–
C=CC(=O)NCCCN1CCOCC1,-0.53,–
Cc1ccc(S(=O)(=O)CC(=O)c2ccccc2)cc1,2.45,–
COc1c(Cl)cc(Cl)cc1Cl,4.11,–
Cc1nc(NCC(C)O)c(C#N)cc1-c1ccccc1 (stereo not given),2.72,–
O=C1c2ccccc2C(=O)C1C(=O)C(c1ccccc1)c1ccccc1,4.27,–
C=CC(=O)NCCCN(CCO)CCO,-0.6,–
CC=CCCCCC,4.51,–
Cc1ccc2oc(N(N)CCC#N)nc2c1,1.48,–
C=CCOc1ccccc1OCC(CNC(C)C)OC(=O)CCC (stereo not given),3.95,–
ClCc1ccc(Cl)cc1,3.18,–
CC(=O)Nc1ccc(C(=O)O)c(O)c1,1.62,–
Cc1nnc(-c2ccccc2)c(=O)n1N,0.83,–
Cc1cc(C)c(N)cc1C,2.27,–
CCOP(=O)(OCC)SCc1ccccc1,3.21,3.84
CCCOc1ccc([N+](=O)[O-])cc1NC(C)=O,1.6,–
Cc1sc(C(=O)Nc2nnn[nH]2)c(OC(C)C)c1Br,1.72,–
Cc1ccc(O[Si]23OCCN(CCO2)CCO3)cc1,0.08,–
C1=C(c2ccccc2)CCNC1,1.99,–
CCOC(=O)COc1cccc2ccccc12,2.9,–
CCCC(C)C(=O)O (stereo not given),1.8,–
O=C(O)COc1cccc2ccccc12,2.6,–
CN1C(=O)CCC1(O)c1cccnc1 (stereo not given),-0.57,–
Clc1ccc2cc(Cl)c(Cl)cc2c1,5.12,7.21e-05
CC(=O)OCCC(C)C,2.25,–
CCOC1OC2OC3(C)CCC4C(COC5OC(C(=O)O)C(O)C(O)C5O)CCC(C1C)C24OO3 (stereo not given),1.05,–

SMILES,logP,solubility [mM]
Oc1ncnc2[nH]ncc12,-0.55,–
Cc1ccc2cc3ccccc3cc2c1,5,–
COP(=S)(OC)Oc1ccc(C#N)cc1,2.71,–
CN(C)CCc1ccccn1,1.12,–
Cc1ccc(C=[N+]([O-])c2ccccc2)cc1,2.41,–
COC(=O)Nc1cccc(F)c1,2.21,–
O=C(OCn1ncc2c(=O)[nH]cnc21)c1cccnc1,0.27,–
CCOC(=O)C1=C(C)NC(C)=C(C(=O)OC)C1c1cccc([N+](=O)[O-])c1 (stereo not given),2.88,–
C[C@H](CCC(=O)NCC(=O)O)[C@H]1CC[C@H]2[C@@H]3[C@H](O)C[C@@H]4C[C@H](O)CC[C@]4(C)[C@H]3C[C@H](O)[C@]12C,1.65,–
O=[N+]([O-])c1cccc2c1-c1cccc3c([N+](=O)[O-])ccc-2c13,4.44,–
O=CNc1nc(-c2ccc([N+](=O)[O-])o2)cs1,-1.14,–
COC(=O)c1ccsc1S(=O)(=O)NC(=O)Nc1nc(OC)nc(OC)n1,1.3,–
CCCCOCCOCCCC,2.48,–
COc1nc(C)nc(=NC(O)=NS(=O)(=O)c2ccccc2C(=O)O)[nH]1,1.7,–
CC(C)c1ccccc1-c1ccccc1,5.2,–
CCCCCCCCC(=O)OC,4.32,–
Clc1ccc2c(ccc3ccccc32)c1,5.16,–
O=C(O)/C=C/C(=O)c1cccnc1,0.26,–
CCC(CO)(CO)CO,-1.48,–
CCN(CC)P(=O)(N(CC)CC)N1CCCC1,2.39,–
Nc1c(Cl)c(Cl)c(N)c2c1C(=O)c1ccccc1C2=O,4.56,–
O=C(c1ccc(Cl)cc1)c1cc(F)ccc1O,4.05,–
Oc1ccc(C2CNCCc3c2cc(O)c(O)c3Cl)cc1 (stereo not given),2.39,–
NS(=O)(=O)c1nn2c(=Nc3ccccc3)snc2s1,2.57,–
CCCCOC(=O)c1ccccc1O,4.63,–
CCCNC(=O)CCC(NS(=O)(=O)c1ccccc1)C(=O)O (stereo not given),0.01,–
CCNc1nc(NCC)nc(SC)n1,2.8,–

SMILES,logP,solubility [mM]
Cc1cc(Cl)c(Cl)cc1Cc1c(Cl)cccc1Cl,7.15,–
Nc1cc2ccccc2cc1N,1.54,–
CC(C)N(C(=O)COc1nnc(C(F)(F)F)s1)c1ccc(F)cc1,3.2,–
O=C(O)c1cccnc1Nc1cccc(C(F)(F)F)c1,4.43,–
CC1=CC(=O)CC(C)(C)C1,1.7,–
O=[N+]([O-])c1ccc2c(c1)-c1ccc([N+](=O)[O-])c3cccc-2c13,4.44,–
CCO[C@H]1O[C@@H]2OC3(C)CC[C@H]4[C@H](C)CC[C@@H]([C@H]1C)[C@@]24OO3,3.89,–
C=CCNc1ncc(-c2ccncc2)cc1C#N,2.07,–
CC1=CCC2CC1C2(C)C (stereo not given),4.83,–
Nc1ccc([N+](=O)[O-])cn1,0.65,–
CCN1CCC(CNC(=O)c2cc(S(N)(=O)=O)c(N)cc2OC)C1 (stereo not given),0.66,–
COC(=O)c1ccccc1S(=O)(=O)NC(=O)Nc1nc(C)cc(C)n1,1.2,–
Cc1ccc(N)cc1C,1.84,–
CC(=O)OCN1C(=O)c2cccc3cccc(c23)C1=O,2.34,–
NS(=O)(=O)c1cc2c(cc1C(F)(F)F)NC(Cc1ccccc1)NS2(=O)=O (stereo not given),1.89,–
OC(CN1C2CCCCC21)Cn1ccnc1 (stereo not given),1.07,–
c1ccc2cc3c4ccccc4c4ccccc4c3cc2c1,6.41,–
COc1ccc(C=[N+]([O-])c2ccccc2)cc1,1.94,–
CCOC(=O)OCn1ncc2c(O)ncnc21,0.21,–
Cc1cn(C2CC(O)C(CO)O2)c(=O)[nH]c1=S (stereo not given),-0.07,–
CCOP(=S)(OCC)Oc1ccc(N)cc1,–,1.49
NC(=O)c1cccc2ccccc12,1.88,–
Cc1ccc(S(=O)(=O)CC(=O)c2ccc(Cl)cc2)cc1,3.43,–
CCCCC[C@H](O)/C=C/[C@@H]1[C@@H](C/C=C\CCCC(=O)O)[C@@H](O)C[C@H]1O,4.39,–

# Same assay, conditions: 20 °C
row,SMILES,solubility [mM]
1,CCSCC,34.7
2,COc1c(Cl)cc(Cl)cc1Cl,0.0473
3,CCCC(C)C(=O)O (stereo not given),129
4,COP(=S)(OC)Oc1nc(Cl)c(Cl)cc1Cl,0.0148
5,ClCCOCCCl,120

# Same assay, conditions: 23.0 °C
row,SMILES,log10 OH rate constant (cm³/molecule/s)
1,CC(=O)C(C)(C)O,-12
2,C=C(F)F,-11.7

# Same assay, conditions: 24 °C
row,SMILES,solubility [mM]
1,c1ccc2cc3ccccc3cc2c1,0.000244

# Same assay, conditions: 24.0 °C
row,SMILES,log10 OH rate constant (cm³/molecule/s)
1,COc1ccccc1OC,-10.5
2,C[Si]1(C)O[Si](C)(C)O[Si](C)(C)O1,-12.3

# Same assay, conditions: 25 °C
row,SMILES,solubility [mM]
1,CCCCN(CCO)CCCC,23.1
2,CCCCCCCCOC(=O)c1ccccc1C(=O)OCCCCCCCC,5.63e-05
3,c1ccc2c(c1)-c1cccc3cccc-2c13,0.00114
4,COCCOC(=O)c1ccccc1C(=O)OCCOC,30.1
5,CCCCOC(=O)c1ccc(C(=O)OCCCC)cc1,0.00341
6,Cc1ccc2c(ccc3ccccc32)c1,0.00146
7,CCOC=O,1190
8,CCCCCCCCCCCCCC,1.97e-05
9,c1ccoc1,147
10,O=CC=Cc1ccccc1,10.7
11,CS,320
12,CC(F)(F)Cl,13.9
13,CC(C)c1ccccc1-c1ccccc1,0.00306
14,CC=CC#N,373
15,Clc1cccc(Cl)c1Cl,0.0992
16,O=C(O)C(Br)Br,9690
17,Brc1ccc(I)cc1,0.0312
18,O=C1C2(Cl)C3(Cl)C4(Cl)C(Cl)(Cl)C5(Cl)C3(Cl)C1(Cl)C5(Cl)C24Cl (stereo not given),0.0055
19,ClC1=C(Cl)C2(Cl)C3C4OC4C(Cl)C3C1(Cl)C2(Cl)Cl (stereo not given),0.000514

# Same assay, conditions: 25.0 °C
row,SMILES,log10 OH rate constant (cm³/molecule/s)
1,FC(F)C(F)F,-14.2
2,CC(=O)C=CC=O,-10.3
3,c1ccc2c(c1)-c1cccc3cccc-2c13,-10.3
4,CC(C)Br,-12.1
5,FC(F)(F)C(Cl)Br (stereo not given),-13.3
6,O=CC(F)Cl (stereo not given),-11.7
7,FC(F)=C(F)OC(F)(F)F,-11.4
8,FCOC(C(F)(F)F)C(F)(F)F,-13.1
9,CCCCBr,-11.6
10,COC(F)(F)C(F)(F)F,-13.9
11,COCC(C)OC (stereo not given),-10.5
12,CCCCOCOCCCC,-10.5
13,CC1CCCO1 (stereo not given),-10.7
14,FC(Cl)C(F)(F)Cl (stereo not given),-13.9
15,c1ccc2cc3ccccc3cc2c1,-9.96
16,C=CC1(C)CCC(O)O1 (stereo not given),-10.1
17,COC(F)(F)C(F)(F)C(F)(F)F,-13.9
18,FC(F)OC(C(F)(F)F)C(F)(F)F,-13.1
19,CCCCCl,-11.8
20,COCC(C)O (stereo not given),-10.7
21,CC(=O)CC1C(CC=O)C1(C)C (stereo not given),-10.3
22,CCCc1c(F)c(F)c(F)c(F)c1F,-11.5

# Same assay, conditions: 26 °C
row,SMILES,solubility [mM]
1,CCNc1nc(O)nc(NC(C)C)n1,0.0299

# Same assay, conditions: 30 °C
row,SMILES,solubility [mM]
1,COc1ccccc1[N+](=O)[O-],11
